The source of these data is patent US20220017512A1 (SHANGHAI ENNOVABIO PHARMACEUTICALS CO., LTD., priority 2018, published 2022).

What all share (type): biochemical
Test [1] has as its target T1, recombinant human TRKA (G667C) (Homo sapiens, UniProt P04629, G667C).
T1 construct: purchased SignalChem
The experiment in a line: In vitro activity test on mutant TRKA (G667C) (HTRF KinEASE TK). The note with it: 5.5 μM ATP, 30 min. The essentials: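 HTRF KinEASE TK format with recombinant human TRKA G667C (0.026 ng/μL), 1 μM biotinylated TK substrate, 5.5 […] ATP, 5 mM MgCl2, 1 mM DTT, 1% DMSO; 30 min at room temperature. Detection overnight; 665/620 ratio gives % inhibition, IC50 from 4-parameter fit over 10 doses (1 μM–0.004 nM).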
In general terms: In TR-FRET formats the signal depends on donor and acceptor labels being close together.

The target in test [2] is T2, recombinant human TRKA (G595R) (Homo sapiens, UniProt P04629, G595R).
T2 construct: purchased SignalChem
The experiment in a line: In vitro activity test on mutant TRKA (G595R) (HTRF KinEASE TK). The following applies: 4.5 μM ATP, 30 min. The essentials:
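HTRF KinEASE TK format: 0.12 ng/μL recombinant TRKA (G595R), 1 μM biotinylated TK substrate, 4.5 μM ATP, 5 mM MgCl2, 1 mM DTT, 1% DMSO, 30 min at room temperature; detection overnight. IC50 from 10-point 4-fold series (1 μM to 0.004 nM, duplicates), 665/620 ratio, 4-parameter fit.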

In a further test the target is T3, Recombinant human TRKA (Homo sapiens, UniProt P04629).
T3 construct: purchased Carna Biosciences
The experiment in a line: In vitro activity test on TRKA kinase (HTRF KinEASE TK). The following applies: 14.68 μM ATP, 40 min. The essentials: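 Reaction: 0.2 ng/μL TRKA, 1 μM biotinylated TK substrate, 14.68 μM ATP, 5 mM MgCl2, 1 mM DTT, 1% DMSO, 40 min at room temperature. Compounds tested at 1 μM to 0.05 nM (10-point, 3-fold, duplicate). HTRF 665/620 ratio converted to % inhibition versus no-compound control; IC50 by 4-parameter fit.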

For a further test, the target named is T4, Recombinant human TRKC (Homo sapiens, UniProt Q16288).
T4 construct: purchased Carna Biosciences
The experiment in a line: In vitro activity test on TRKC kinase (HTRF KinEASE TK). The following applies: 25.64 μM ATP, 40 min. An outline of the steps:
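Recombinant human TRKC (0.037 ng/μL) with 1 μM biotinylated TK substrate, 25.64 μM ATP, 5 mM MgCl2, 1 mM DTT, 40 min at room temperature; compound 1 μM to 0.05 nM, 1% DMSO. HTRF 665/620 ratio after overnight detection; IC50 from 4-parameter fit.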

Another test concerns the target T5, Recombinant human TRKB (Homo sapiens, UniProt Q16620).
T5 construct: purchased Carna Biosciences
The experiment in a line: In vitro activity test on TRKB kinase (HTRF KinEASE TK). The note with it: 4.77 μM ATP, 50 min. The essentials: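 Recombinant human TRKB (0.037 ng/μL) phosphorylated 1 μM biotinylated TK substrate at 4.77 μM ATP, 5 mM MgCl2, 1% DMSO, 50 min at room temperature; compounds 1 μM–0.05 nM. HTRF KinEASE detection overnight; 665/620 ratio converted to inhibition and IC50 from 4-parameter fit.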

By IC50 is commonly meant the midpoint of a concentration-inhibition curve.

T2 sequence (P04629 33-796 G595R): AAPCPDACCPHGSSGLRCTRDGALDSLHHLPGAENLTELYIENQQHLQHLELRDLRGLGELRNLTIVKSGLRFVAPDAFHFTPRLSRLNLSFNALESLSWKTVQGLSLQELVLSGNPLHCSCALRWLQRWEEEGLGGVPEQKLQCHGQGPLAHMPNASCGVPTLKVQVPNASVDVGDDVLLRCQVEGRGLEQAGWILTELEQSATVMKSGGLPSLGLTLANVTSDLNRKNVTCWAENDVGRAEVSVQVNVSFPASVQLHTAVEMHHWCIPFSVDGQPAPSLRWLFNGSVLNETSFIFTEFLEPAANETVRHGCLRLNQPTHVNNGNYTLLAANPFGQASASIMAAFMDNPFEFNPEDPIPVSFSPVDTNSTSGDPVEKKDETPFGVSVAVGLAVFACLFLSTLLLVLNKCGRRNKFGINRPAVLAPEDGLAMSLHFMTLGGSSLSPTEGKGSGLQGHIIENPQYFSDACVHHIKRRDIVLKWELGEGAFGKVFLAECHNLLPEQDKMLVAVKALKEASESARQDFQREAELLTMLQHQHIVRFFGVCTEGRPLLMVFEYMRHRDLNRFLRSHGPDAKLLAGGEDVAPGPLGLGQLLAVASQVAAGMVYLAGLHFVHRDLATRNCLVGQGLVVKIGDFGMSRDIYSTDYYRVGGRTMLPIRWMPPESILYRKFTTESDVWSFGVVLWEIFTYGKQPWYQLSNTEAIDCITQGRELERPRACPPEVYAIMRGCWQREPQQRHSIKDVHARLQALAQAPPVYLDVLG
T5 sequence (Q16620 32-822): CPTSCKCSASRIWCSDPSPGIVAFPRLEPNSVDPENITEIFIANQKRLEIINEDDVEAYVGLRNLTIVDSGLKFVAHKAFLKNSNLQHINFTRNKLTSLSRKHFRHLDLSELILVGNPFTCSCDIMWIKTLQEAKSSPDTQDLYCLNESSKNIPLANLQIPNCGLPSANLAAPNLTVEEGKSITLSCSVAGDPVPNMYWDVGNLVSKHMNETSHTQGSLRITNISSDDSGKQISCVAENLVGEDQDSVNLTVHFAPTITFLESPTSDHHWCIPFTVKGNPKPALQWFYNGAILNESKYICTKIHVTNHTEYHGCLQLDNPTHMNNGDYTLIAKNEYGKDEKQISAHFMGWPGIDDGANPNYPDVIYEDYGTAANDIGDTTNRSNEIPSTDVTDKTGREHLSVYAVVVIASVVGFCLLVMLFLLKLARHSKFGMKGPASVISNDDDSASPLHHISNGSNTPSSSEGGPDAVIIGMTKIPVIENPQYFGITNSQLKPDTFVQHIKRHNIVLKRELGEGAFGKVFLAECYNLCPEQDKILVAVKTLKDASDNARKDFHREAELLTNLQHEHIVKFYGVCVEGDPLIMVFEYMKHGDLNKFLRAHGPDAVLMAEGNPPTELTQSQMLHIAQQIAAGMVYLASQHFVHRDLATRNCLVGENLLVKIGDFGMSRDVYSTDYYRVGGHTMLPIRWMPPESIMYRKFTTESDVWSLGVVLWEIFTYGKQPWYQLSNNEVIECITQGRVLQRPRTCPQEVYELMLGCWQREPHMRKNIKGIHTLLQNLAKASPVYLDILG
T1 sequence (P04629 33-796 G667C): as the sequence (P04629 33-796 G595R) above, with R563G, G635C counted along it
T3 sequence (P04629 33-796): as the sequence (P04629 33-796 G595R) above, with R563G counted along it
T4 sequence (Q16288 32-839): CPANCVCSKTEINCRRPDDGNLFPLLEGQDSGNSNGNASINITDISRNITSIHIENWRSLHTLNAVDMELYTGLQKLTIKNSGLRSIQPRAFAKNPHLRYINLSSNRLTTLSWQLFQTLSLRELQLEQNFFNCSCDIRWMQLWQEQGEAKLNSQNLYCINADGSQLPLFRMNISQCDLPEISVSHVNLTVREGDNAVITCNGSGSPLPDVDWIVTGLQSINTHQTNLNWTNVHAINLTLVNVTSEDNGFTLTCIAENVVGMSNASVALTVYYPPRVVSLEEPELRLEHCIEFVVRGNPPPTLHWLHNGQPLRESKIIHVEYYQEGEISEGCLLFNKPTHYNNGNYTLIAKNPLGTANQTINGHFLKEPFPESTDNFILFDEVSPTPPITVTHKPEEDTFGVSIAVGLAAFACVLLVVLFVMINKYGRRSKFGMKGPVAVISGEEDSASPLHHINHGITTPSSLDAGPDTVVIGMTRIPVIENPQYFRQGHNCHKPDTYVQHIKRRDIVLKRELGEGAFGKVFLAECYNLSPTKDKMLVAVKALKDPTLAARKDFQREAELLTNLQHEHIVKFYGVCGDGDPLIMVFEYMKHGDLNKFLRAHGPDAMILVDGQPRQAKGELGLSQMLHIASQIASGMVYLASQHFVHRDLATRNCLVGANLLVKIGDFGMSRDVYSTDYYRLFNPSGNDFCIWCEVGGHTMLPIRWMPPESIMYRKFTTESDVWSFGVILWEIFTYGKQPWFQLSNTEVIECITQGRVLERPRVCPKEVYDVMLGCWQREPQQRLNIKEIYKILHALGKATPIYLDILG

Regarding `O[C@H]1CCN(c2nc(-c3c(F)cnc4ccc(N5C[C@@H](F)C[C@@H]5c5cc(F)ccc5F)nc34)no2)C1` [Example 77, (S)-1-(3-(6-((2R,4S)-2-(2,5-difluorophenyl)-4-fluoropyrrolidin-1-yl)-3-fluoro-1,5-naphthyridin-4-yl)-1,2,4-oxadiazol-5-yl)pyrrolidin-3-ol], the IC50 is less than 50 nM in test [1]; less than 1 nM in test [2]; less than 1 nM at Recombinant human TRKA; less than 10 nM at Recombinant human TRKC; less than 10 nM on Recombinant human TRKB.
With `Fc1ccc(F)c([C@H]2C[C@H](F)CN2c2ccc3ncnc(-n4cc(C5CCNCC5)cn4)c3n2)c1` [Example 78, 6-((2R,4S)-2-(2,5-difluorophenyl)-4-fluoropyrrolidin-1-yl)-4-(4-(piperidin-4-yl)-1H-pyrazol-1-yl)pyrido[3,2-d]pyrimidine], the IC50 in test [1] is less than 10 nM; in test [2], less than 1 nM; on Recombinant human TRKA, less than 1 nM; on Recombinant human TRKC, less than 1 nM; on Recombinant human TRKB, less than 1 nM.
Turning to `O[C@H]1CCN(C(=S)Nc2ccnc3ccc(N4C[C@@H](F)C[C@@H]4c4cc(F)ccc4F)nc23)C1` [Example 79, (S)-N-(6-((2R,4S)-2-(2,5-difluorophenyl)-4-fluoropyrrolidin-1-yl)-1,5-naphthyridin-4-yl)-3-hydroxypyrrolidine-1-methylthioamide], the half-maximal inhibitory concentration (IC50) was less than 10 nM in test [1]; less than 1 nM in test [2]; less than 1 nM on Recombinant human TRKA; less than 1 nM on Recombinant human TRKC; less than 1 nM at Recombinant human TRKB.
Turning to `O[C@@H]1CN=C(Nc2ccnc3ccc(N4C[C@@H](F)C[C@@H]4c4cc(F)ccc4F)nc23)OC1` [Example 98, (R)-2-((6-((2R,4S)-2-(2,5-difluorophenyl)-4-fluoropyrrolidin-1-yl)-1,5-naphthyridin-4-yl)amino)-5,6-dihydro-4H-1,3-oxazin-5-ol], the IC50 (in test [1]; in test [2]; at Recombinant human TRKA; at Recombinant human TRKC; on Recombinant human TRKB) was less than 1 nM throughout.
Regarding `O[C@H]1CN=C(Nc2ccnc3ccc(N4C[C@@H](F)C[C@@H]4c4cc(F)ccc4F)nc23)OC1` [Example 99, (S)-2-((6-((2R,4S)-2-(2,5-difluorophenyl)-4-fluoropyrrolidin-1-yl)-1,5-naphthyridin-4-yl)amino)-5,6-dihydro-4H-1,3-oxazin-5-ol], the IC50 was less than 1 nM in test [1]; less than 1 nM in test [2]; less than 1 nM on Recombinant human TRKA; less than 10 nM on Recombinant human TRKC; less than 1 nM at Recombinant human TRKB.
